Test results from publication PMC10382584, “Macrocyclization of linear molecules by deep learning to facilitate macrocyclic drug candidates discovery” (Nature Communications, 2023).

Key:
Assay in all cases: biochemical
Parameters in all cases: DiscoveRx KINOMEscan competition binding, percent of DMSO control signal at 100 nM
Details in all cases: read-out: Fig. 4a / Percent Control / Compound 1; percent of DMSO control, competition binding
[1] = molecular target: TIE1 (Homo sapiens, UniProt P35590)
[2] = molecular target: KIT(D816H) (Homo sapiens, UniProt P10721, D816H)
[3] = molecular target: HIPK1 (Homo sapiens, UniProt Q86Z02)
[4] = molecular target: IGF1R (Homo sapiens, UniProt P08069)
[5] = molecular target: CAMK2B (Homo sapiens, UniProt Q13554)
[6] = molecular target: T1, ERK3 (Homo sapiens, UniProt Q16659)
T1 construct: gene MAPK6

[7] = molecular target: MTOR (Homo sapiens, UniProt P42345)
[8] = molecular target: NEK3 (Homo sapiens, UniProt P51956)
NEK3, sequence (P51956 whole entry): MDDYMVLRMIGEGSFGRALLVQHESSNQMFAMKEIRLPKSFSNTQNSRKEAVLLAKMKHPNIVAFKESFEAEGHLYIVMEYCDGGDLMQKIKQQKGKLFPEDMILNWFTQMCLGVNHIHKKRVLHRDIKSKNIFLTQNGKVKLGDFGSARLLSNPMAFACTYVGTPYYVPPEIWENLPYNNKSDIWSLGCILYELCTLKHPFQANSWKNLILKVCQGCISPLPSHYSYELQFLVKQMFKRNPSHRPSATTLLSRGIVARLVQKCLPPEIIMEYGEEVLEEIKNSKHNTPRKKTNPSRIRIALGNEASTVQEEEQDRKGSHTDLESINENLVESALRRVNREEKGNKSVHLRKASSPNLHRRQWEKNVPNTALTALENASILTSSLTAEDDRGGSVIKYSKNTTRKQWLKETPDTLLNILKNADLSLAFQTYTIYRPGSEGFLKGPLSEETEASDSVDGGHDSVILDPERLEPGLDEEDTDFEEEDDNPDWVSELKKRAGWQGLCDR

[9] = molecular target: EPHA7 (Homo sapiens, UniProt Q15375)
EPHA7, sequence (Q15375 whole entry): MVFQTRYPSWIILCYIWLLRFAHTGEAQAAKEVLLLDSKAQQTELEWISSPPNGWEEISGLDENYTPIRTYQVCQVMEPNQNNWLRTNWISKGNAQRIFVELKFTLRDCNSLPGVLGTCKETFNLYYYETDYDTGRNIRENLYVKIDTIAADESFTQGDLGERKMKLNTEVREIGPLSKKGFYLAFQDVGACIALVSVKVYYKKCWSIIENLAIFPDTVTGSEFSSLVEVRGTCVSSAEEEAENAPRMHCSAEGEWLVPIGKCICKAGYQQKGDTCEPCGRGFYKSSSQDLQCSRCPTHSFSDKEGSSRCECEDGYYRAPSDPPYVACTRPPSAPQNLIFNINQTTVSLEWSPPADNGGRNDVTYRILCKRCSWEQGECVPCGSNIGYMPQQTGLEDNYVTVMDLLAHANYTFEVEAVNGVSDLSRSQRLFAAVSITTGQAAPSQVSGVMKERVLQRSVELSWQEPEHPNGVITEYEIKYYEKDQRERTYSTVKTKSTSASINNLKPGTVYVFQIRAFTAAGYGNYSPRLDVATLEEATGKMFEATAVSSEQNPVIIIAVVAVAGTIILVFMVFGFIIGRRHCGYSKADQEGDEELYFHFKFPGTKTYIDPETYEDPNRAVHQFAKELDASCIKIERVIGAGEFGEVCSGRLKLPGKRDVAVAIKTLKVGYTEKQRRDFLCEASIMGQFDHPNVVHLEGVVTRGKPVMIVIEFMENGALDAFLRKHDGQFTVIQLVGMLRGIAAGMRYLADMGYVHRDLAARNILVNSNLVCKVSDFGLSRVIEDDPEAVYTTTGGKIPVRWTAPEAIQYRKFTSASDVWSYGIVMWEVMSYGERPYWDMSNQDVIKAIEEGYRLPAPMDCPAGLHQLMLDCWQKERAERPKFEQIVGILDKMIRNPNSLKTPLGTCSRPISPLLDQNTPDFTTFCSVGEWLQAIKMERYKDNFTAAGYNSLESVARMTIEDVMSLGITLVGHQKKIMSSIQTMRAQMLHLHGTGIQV

[10] = molecular target: ERBB3 (Homo sapiens, UniProt P21860)
[11] = molecular target: STK16 (Homo sapiens, UniProt O75716)
[12] = molecular target: T2, ABL1(H396P)-phosphorylated (Homo sapiens, UniProt P00519, H396P)
T2 construct: phosphorylated

[13] = molecular target: PIK3CA(Q546K) (Homo sapiens, UniProt P42336, Q546K)
PIK3CA(Q546K), sequence (P42336 whole entry Q546K): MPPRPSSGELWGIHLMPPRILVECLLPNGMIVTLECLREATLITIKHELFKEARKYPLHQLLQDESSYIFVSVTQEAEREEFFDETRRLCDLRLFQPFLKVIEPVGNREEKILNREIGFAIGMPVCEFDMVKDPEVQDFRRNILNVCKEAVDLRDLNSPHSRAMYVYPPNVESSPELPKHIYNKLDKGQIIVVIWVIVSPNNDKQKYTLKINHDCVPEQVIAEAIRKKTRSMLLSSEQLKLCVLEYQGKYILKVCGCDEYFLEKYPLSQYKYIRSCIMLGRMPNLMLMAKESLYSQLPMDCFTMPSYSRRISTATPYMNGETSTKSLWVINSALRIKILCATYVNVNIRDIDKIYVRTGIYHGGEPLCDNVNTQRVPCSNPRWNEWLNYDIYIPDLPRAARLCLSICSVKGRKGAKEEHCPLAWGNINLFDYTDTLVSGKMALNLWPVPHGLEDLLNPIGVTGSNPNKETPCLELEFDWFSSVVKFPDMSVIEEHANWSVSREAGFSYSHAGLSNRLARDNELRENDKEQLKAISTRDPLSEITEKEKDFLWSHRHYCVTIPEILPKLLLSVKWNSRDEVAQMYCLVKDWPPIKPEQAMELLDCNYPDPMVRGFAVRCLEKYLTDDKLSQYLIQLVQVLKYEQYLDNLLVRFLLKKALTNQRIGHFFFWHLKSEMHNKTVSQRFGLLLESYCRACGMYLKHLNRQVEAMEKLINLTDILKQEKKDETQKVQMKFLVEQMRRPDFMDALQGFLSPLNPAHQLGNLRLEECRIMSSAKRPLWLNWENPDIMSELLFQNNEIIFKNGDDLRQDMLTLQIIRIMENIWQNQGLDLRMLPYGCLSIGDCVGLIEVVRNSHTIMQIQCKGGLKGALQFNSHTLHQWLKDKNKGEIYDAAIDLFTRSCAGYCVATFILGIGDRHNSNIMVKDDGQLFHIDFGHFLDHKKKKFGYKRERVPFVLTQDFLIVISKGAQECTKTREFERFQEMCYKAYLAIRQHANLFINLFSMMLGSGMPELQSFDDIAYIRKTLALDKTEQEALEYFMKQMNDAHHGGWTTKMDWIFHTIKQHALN

[14] = molecular target: T3, S6K1 (Homo sapiens, UniProt P23443)
T3 construct: gene RPS6KB1
T3 sequence (P23443 whole entry): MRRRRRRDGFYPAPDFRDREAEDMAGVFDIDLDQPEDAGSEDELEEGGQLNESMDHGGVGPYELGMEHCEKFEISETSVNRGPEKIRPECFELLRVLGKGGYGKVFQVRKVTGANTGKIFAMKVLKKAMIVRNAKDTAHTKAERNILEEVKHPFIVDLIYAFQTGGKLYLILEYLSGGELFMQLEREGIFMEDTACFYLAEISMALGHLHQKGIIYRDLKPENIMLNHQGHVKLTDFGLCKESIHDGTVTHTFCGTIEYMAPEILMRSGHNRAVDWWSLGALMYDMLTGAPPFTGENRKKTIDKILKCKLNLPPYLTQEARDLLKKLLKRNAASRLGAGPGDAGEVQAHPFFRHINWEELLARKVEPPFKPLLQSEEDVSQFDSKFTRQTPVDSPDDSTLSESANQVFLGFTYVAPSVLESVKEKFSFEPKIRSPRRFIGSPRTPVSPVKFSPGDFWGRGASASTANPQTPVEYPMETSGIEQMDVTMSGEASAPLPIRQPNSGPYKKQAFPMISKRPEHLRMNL

[15] = molecular target: CAMK1 (Homo sapiens, UniProt Q14012)
CAMK1, sequence (Q14012 whole entry): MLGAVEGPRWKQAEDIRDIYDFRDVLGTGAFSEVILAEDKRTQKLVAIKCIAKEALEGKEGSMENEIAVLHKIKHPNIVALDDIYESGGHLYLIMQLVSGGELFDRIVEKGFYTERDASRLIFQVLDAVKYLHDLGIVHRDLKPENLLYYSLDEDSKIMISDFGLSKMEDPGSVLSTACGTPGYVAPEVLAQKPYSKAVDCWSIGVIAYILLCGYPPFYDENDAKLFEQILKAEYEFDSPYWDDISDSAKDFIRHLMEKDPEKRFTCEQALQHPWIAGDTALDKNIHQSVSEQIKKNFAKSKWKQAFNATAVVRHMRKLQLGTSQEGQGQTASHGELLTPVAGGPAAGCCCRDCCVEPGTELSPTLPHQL

[16] = molecular target: T4, DCAMKL1 (Homo sapiens, UniProt O15075)
T4 construct: gene DCLK1
T4 sequence (O15075 whole entry): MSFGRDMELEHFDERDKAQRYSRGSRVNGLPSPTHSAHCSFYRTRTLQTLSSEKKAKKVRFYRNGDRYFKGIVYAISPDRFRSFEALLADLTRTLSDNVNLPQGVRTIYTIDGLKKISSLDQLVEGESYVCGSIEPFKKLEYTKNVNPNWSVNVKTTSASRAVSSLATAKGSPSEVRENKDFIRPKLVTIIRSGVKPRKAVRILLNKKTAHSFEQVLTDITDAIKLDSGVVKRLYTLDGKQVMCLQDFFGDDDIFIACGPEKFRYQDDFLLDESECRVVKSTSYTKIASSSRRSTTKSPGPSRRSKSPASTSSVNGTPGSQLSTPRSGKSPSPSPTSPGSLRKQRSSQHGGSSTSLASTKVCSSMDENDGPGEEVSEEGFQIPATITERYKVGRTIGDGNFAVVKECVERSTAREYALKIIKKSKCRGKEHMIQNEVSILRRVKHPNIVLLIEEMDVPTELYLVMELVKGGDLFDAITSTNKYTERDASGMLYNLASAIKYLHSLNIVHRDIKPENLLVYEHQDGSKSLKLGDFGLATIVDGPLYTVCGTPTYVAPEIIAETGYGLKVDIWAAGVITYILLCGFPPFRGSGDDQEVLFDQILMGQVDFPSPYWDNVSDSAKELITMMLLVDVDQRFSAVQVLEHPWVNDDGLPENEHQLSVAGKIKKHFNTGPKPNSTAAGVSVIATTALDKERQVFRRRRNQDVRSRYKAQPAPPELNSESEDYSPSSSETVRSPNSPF

[17] = molecular target: TXK (Homo sapiens, UniProt P42681)
[18] = molecular target: WEE1 (Homo sapiens, UniProt P30291)
WEE1, sequence (P30291 whole entry): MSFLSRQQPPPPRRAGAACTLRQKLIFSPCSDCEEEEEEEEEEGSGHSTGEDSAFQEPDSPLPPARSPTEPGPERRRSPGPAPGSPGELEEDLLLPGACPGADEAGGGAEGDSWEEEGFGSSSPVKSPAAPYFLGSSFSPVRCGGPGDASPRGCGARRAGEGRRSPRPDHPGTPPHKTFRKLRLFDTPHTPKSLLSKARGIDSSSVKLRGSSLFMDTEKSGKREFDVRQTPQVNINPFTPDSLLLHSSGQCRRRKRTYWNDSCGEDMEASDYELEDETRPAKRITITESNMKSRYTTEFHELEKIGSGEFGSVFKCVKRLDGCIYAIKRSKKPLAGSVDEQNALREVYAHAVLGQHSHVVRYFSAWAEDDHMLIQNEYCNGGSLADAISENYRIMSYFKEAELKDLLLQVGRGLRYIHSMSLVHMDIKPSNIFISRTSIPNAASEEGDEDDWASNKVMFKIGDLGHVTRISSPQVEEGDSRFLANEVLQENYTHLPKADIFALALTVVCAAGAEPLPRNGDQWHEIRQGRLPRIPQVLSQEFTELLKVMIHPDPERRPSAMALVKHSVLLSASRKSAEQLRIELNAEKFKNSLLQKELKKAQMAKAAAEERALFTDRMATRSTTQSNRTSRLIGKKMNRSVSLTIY

[19] = molecular target: SLK (Homo sapiens, UniProt Q9H2G2)
[20] = molecular target: T5, SgK110 (Homo sapiens, UniProt P0C264)
T5 construct: gene SBK3

[21] = molecular target: T6, CAMK1B (Homo sapiens, UniProt Q6P2M8)
T6 construct: gene PNCK

[22] = molecular target: LRRK2 (Homo sapiens, UniProt Q5S007)
[23] = molecular target: T7, BRK (Homo sapiens, UniProt Q13882)
T7 construct: gene PTK6

[24] = molecular target: T8, IKK-epsilon (Homo sapiens, UniProt Q14164)
T8 construct: gene IKBKE

[25] = molecular target: T9, MEK1 (Homo sapiens, UniProt Q02750)
T9 construct: gene MAP2K1
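Further: KINOMEscan kinase panel binding assay, signal normalized between DMSO as 100% and a positive control compound as 0%.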

Cc1cnc2nc1Nc1cccc(c1)COCc1cc(ccc1OCCN1CCCC1)N2 [Compound 1]
remaining binding at 0.1 µM [1]: 94%
remaining binding at 0.1 µM [2]: 60%
remaining binding at 0.1 µM [3]: 66%
remaining binding at 0.1 µM [4]: 91%
remaining binding at 0.1 µM [5]: 94%
remaining binding at 0.1 µM [6]: 82%
remaining binding at 0.1 µM [7]: 82%
remaining binding at 0.1 µM [8]: 90%
remaining binding at 0.1 µM [9]: 98%
remaining binding at 0.1 µM [10]: 100%
remaining binding at 0.1 µM [11]: 18%
remaining binding at 0.1 µM [12]: 83%
remaining binding at 0.1 µM [13]: 70%
remaining binding at 0.1 µM [14]: 98%
remaining binding at 0.1 µM [15]: 92%
remaining binding at 0.1 µM [16]: 90%
remaining binding at 0.1 µM [17]: 94%
remaining binding at 0.1 µM [18]: 90%
remaining binding at 0.1 µM [19]: 70%
remaining binding at 0.1 µM [20]: 65%
remaining binding at 0.1 µM [21]: 92%
remaining binding at 0.1 µM [22]: 85%
remaining binding at 0.1 µM [23]: 98%
remaining binding at 0.1 µM [24]: 100%
remaining binding at 0.1 µM [25]: 77%
